The results in this text go back to US20260001876A1, “Compounds and Their Use as PDE4 Activators” (Mironid Limited, priority 2022, published 2026).

Structures are written as SMILES.

The first test relates to m-IMCD3 cells. The experiment in a line: Inhibition of PGE2-stimulated in vitro cyst formation in m-IMCD3 cells (3D culture). It counts as cell-based. The note with it: Mus musculus, mIMCD3, 144 h; 3 μM; mean cyst area; 100% for (DMSO + PGE2) and 0% for DMSO control; 6 days of culture; read-out: % Cyst area* after incubation with 3 μM test compound. The procedure: HEK 293 and MDCK cells (Public Health England, Cell Culture Collections) were maintained in Dulbecco's Modified Eagle's Medium (DMEM) supplemented with 10% (v/v) fetal bovine serum (FBS) (Seralab), 2 mM L-glutamine and 100 U/mL penicillin streptomycin cocktail (ThermoFisher); termed complete media. Clonal HEK 293 cell lines were maintained in complete media supplemented with 0.6 mg/ml G418 (Enzo Life Sciences). Mouse inner medullary collecting duct (m-IMCD3) cells [American Type Culture Collection (ATCC)] were maintained in media consisting of DMEM/Hams F-12 50/50 Mix (DMEM F12; Corning) supplemented with penicillin streptomycin cocktail (100 U/mL) and FBS (10% v/v) (DMEM F12-10% FBS).
Experiment 3: Inhibition of In Vitro Cyst Formation in m-IMCD3 Cells Treated with PDE4 Long Form Activators
The mouse Inner Medullary Collecting Duct cell line (m-IMCD3) spontaneously forms cystic spheroids in 3D culture with a Type 1 collagen/Matrigel extracellular matrix. This process can be stimulated with agents which raise intracellular cAMP and is used as an in vitro model for the formation of cystic structures in the kidneys of patients with ADPKD.
Rat Collagen I (Fisher Scientific) is prepared on ice by neutralising with 1M NaOH and diluting with a 2× volume of DMEM/F12+10% FBS. This is mixed 1:1.1 with ice cold Matrigel (Corning) for coating plates (coating mix), and 1:0.93 with Matrigel for cell plating (plating mix).
The assay is conducted in the wells of a 96-well plate culture dish using a total volume of 130 μL of collagen/Matrigel/DMEM F12-10% FBS suspension in growth media for each matrix plug per individual well. Initially, 30 μL of collagen/Matrigel/DMEM F12-10% FBS (coating mix) is added into the well of a 96 well plate and the collagen is set to a gel by incubating at 37° C. for at least 15 minutes. A second layer of 100 μL collagen/Matrigel suspension (plating mix) containing m-IMCD3 cells (2.75×10^6 m-IMCD3 cells per 96-well plate) is layered over the coating mix and the collagen/Matrigel/cell mix again set to a gel by incubating at 37° C. Cell cultures are maintained at 37° C. in an atmosphere of 5% CO2, 95% air.
Between 18 and 24 h after plating, test compound(s) as DMSO stock solutions [0.1% (v/v) final DMSO concentration] and PGE2 (100 nM final concentration) in DMEM F12-10% FBS are added in quadruplicate wells per condition. Media, together with the test compound and PGE2 are replenished after 2 or 3 days. After 6 days of culture z stack images of the wells are captured using the Nikon Eclipse Ti2-E microscope. Nikon General Analysis software is used to measure the following parameters in each well: the mean cyst area, the number of cysts, and the total cyst area.
PDE4 long form activators inhibited in vitro cyst formation in m-IMCD3 cells. Data are shown in Table 4 as mean cyst area (%), compared to 100% for (DMSO+PGE2) and 0% for DMSO control.
As to `O=C(c1ccccc1)N1CCc2nc(N3C4CCC3CNC4)ccc2C1` [Example 120, (2-(3,8-diazabicyclo[3.2.1]octan-8-yl)-7,8-dihydro-1,6-naphthyridin-6(5H)-yl)(phenyl)methanone], the activity at 3 µM is 1%.
Take `O=C(c1ccc(F)cc1)N1CCc2nc(N3C4CCC3CNC4)ccc2C1` [Example 123, (2-(3,8-diazabicyclo[3.2.1]octan-8-yl)-7,8-dihydro-1,6-naphthyridin-6(5H)-yl)(4-fluorophenyl)methanone]: the activity at 3 µM is -7%.
Regarding `O=C([C@H](O)C1CCCC1)N1CCc2nc(N3C4CCC3CNC4)ccc2C1` [Example 124, (2R)-1-(2-(3,8-diazabicyclo[3.2.1]octan-8-yl)-7,8-dihydro-1,6-naphthyridin-6(5H)-yl)-2-cyclopentyl-2-hydroxyethan-1-one], the activity at 3 µM worked out at 0%.
In the case of `O=C(OC1CCCC1)N1CCc2nc(N3C4CCC3CNC4)ccc2C1` [Example 125, cyclopentyl 2-(3,8-diazabicyclo[3.2.1]octan-8-yl)-7,8-dihydro-1,6-naphthyridine-6(5H)-carboxylate], the activity at 3 µM is -3%.
Regarding `CC(C)OC(=O)N1CCc2nc(N3C4CCC3CNC4)ccc2C1` [Example 126, isopropyl 2-(3,8-diazabicyclo[3.2.1]octan-8-yl)-7,8-dihydro-1,6-naphthyridine-6(5H)-carboxylate], the activity at 3 µM was found to be 14%.
On the same count and under the same terms, the figure for `O=C(OCc1ccccc1)N1CCc2nc(N3C4CCC3CNC4)ccc2C1` [Example 127, benzyl 2-(3,8-diazabicyclo[3.2.1]octan-8-yl)-7,8-dihydro-1,6-naphthyridine-6(5H)-carboxylate] is 3%.
Turning to `CC(C)[C@H](C)C(=O)N1Cc2ccc(N3C4CCC3CNC4)nc2C1` [Example 128, (2S)-1-(2-(3,8-diazabicyclo[3.2.1]octan-8-yl)-5,7-dihydro-6H-pyrrolo[3,4-b]pyridin-6-yl)-2,3-dimethylbutan-1-one], the activity at 3 µM stood at 3%.
For the compound `O=C(Cc1ccccc1)N1CCc2nc(N3C4CCC3CNC4)ncc2C1` [Example 133, 1-(2-(3,8-diazabicyclo[3.2.1]octan-8-yl)-7,8-dihydropyrido[4,3-d]pyrimidin-6(5H)-yl)-2-phenylethan-1-one], the activity at 3 µM was -5%.
`O=C(Cc1ccccc1)N1CCc2nc(N3CC4CCC(C3)N4)ncc2C1` [Example 135, 1-(2-(3,8-diazabicyclo[3.2.1]octan-3-yl)-7,8-dihydropyrido[4,3-d]pyrimidin-6(5H)-yl)-2-phenylethan-1-one]: the activity at 3 µM was -5%.
With `N#Cc1ccc(CC(=O)N2CCc3nc(N4CCNCC4)ncc3C2)cc1` [Example 137, 4-(2-oxo-2-(2-(piperazin-1-yl)-7,8-dihydropyrido[4,3-d]pyrimidin-6(5H)-yl)ethyl)benzonitrile], the activity at 3 µM was found to be 13%.
Same read-out and setting: the figure for `N#Cc1ccc(CC(=O)N2CCc3nc(N4CC5CCC(C4)N5)ncc3C2)cc1` [Example 138, 4-(2-(2-(3,8-diazabicyclo[3.2.1]octan-3-yl)-7,8-dihydropyrido[4,3-d]pyrimidin-6(5H)-yl)-2-oxoethyl)benzonitrile] is 0%.
With `O=C(Cc1ccc(F)cc1)N1CCc2nc(N3CCNCC3)ncc2C1` [Example 140, 2-(4-fluorophenyl)-1-(2-(piperazin-1-yl)-7,8-dihydropyrido[4,3-d]pyrimidin-6(5H)-yl)ethan-1-one], the activity at 3 µM came to 6%.
Regarding `O=C(Cc1ccc(F)cc1)N1CCc2nc(N3CC4CCC(C3)N4)ncc2C1` [Example 141, 1-(2-(3,8-diazabicyclo[3.2.1]octan-3-yl)-7,8-dihydropyrido[4,3-d]pyrimidin-6(5H)-yl)-2-(4-fluorophenyl)ethan-1-one], the activity at 3 µM was -2%.
As to `O=C(CC1CCCC1)N1CCc2nc(N3C4CCC3CNC4)ncc2C1` [Example 142, 1-(2-(3,8-diazabicyclo[3.2.1]octan-8-yl)-7,8-dihydropyrido[4,3-d]pyrimidin-6(5H)-yl)-2-cyclopentylethan-1-one], the activity at 3 µM came to 26%.
As to `O=C(CC1CCCC1)N1CCc2nc(N3CCNCC3)ncc2C1` [Example 143, 2-cyclopentyl-1-(2-(piperazin-1-yl)-7,8-dihydropyrido[4,3-d]pyrimidin-6(5H)-yl)ethan-1-one], the activity at 3 µM was 22%.
With `O=C(CC1CCCCC1)N1CCc2nc(N3CCNCC3)ncc2C1` [Example 145, 2-cyclohexyl-1-(2-(piperazin-1-yl)-7,8-dihydropyrido[4,3-d]pyrimidin-6(5H)-yl)ethan-1-one], the activity at 3 µM turned out to be 15%.
As to `CC(C)(C)CC(=O)N1CCc2nc(N3C4CCC3CNC4)ncc2C1` [Example 146, 1-(2-(3,8-diazabicyclo[3.2.1]octan-8-yl)-7,8-dihydropyrido[4,3-d]pyrimidin-6(5H)-yl)-3,3-dimethylbutan-1-one], the activity at 3 µM was found to be 22%.
Turning to `O=C(CC1CCCC1)N1CCc2cnc(N3C4CCC3CNC4)nc2C1` [Example 148, 1-(2-(3,8-diazabicyclo[3.2.1]octan-8-yl)-5,8-dihydropyrido[3,4-d]pyrimidin-7 (6H)-yl)-2-cyclopentylethan-1-one], the activity at 3 µM amounted to 7%.
Regarding `CC(C)(C)CC(=O)N1CCc2nc(N3CCNCC3)ccc2C1` [Example 149, 3,3-dimethyl-1-(2-(piperazin-1-yl)-7,8-dihydro-1,6-naphthyridin-6(5H)-yl) butan-1-one], the activity at 3 µM was found to be 11%.
As for `O=C(CC1CCCC1)N1CCc2nc(N3CC4CCC3CN4)ccc2C1` (stereo not drawn) [Example 153, 1-(2-(2,5-diazabicyclo[2.2.2]octan-2-yl)-7,8-dihydro-1,6-naphthyridin-6(5H)-yl)-2-cyclopentylethan-1-one], the activity at 3 µM was found to be 2%.
Regarding `O=C(CC1CCCC1)N1CCc2nc(N3CC4CCC(C3)N4)ccc2C1` [Example 154, 1-(2-(3,8-diazabicyclo[3.2.1]octan-3-yl)-7,8-dihydro-1,6-naphthyridin-6(5H)-yl)-2-cyclopentylethan-1-one], the activity at 3 µM was -6%.
`O=C(CC1CCCC1)N1CCc2nc(N3C4CNCC3CC(O)C4)ccc2C1` (stereo not drawn) [Example 157, 2-cyclopentyl-1-(2-(7-hydroxy-3,9-diazabicyclo[3.3.1]nonan-9-yl)-7,8-dihydro-1,6-naphthyridin-6(5H)-yl)ethan-1-one]: the activity at 3 µM was 10%.

The test is the same for the next values; noted with them: Mus musculus, mIMCD3, 144 h; 10 μM; mean cyst area; 100% for (DMSO + PGE2) and 0% for DMSO control; 6 days of culture; read-out: % Cyst area* after incubation with 10 μM test compound.
Consider `O=C(N1CCCC1)N1Cc2ccc(N3C4CCC3CNC4)nc2C1` [Example 95, (2-(3,8-diazabicyclo[3.2.1]octan-8-yl)-5,7-dihydro-6H-pyrrolo[3,4-b]pyridin-6-yl)(pyrrolidin-1-yl)methanone], for which the activity at 10 µM is -2%.
For `CCN(CC)C(=O)N1Cc2ccc(N3C4CCC3CNC4)nc2C1` [Example 96, 2-(3,8-diazabicyclo[3.2.1]octan-8-yl)-N,N-diethyl-5,7-dihydro-6H-pyrrolo[3,4-b]pyridine-6-carboxamide], the activity at 10 µM is -4%.
Still for that read-out and setting: the figure for `CN1CC2CCC(C1)N2c1ccc2c(n1)CCN(C(=O)CC1CCC(F)(F)CC1)C2` [Example 106, 2-(4,4-difluorocyclohexyl)-1-(2-(3-methyl-3,8-diazabicyclo[3.2.1]octan-8-yl)-7,8-dihydro-1,6-naphthyridin-6(5H)-yl)ethan-1-one] is 1%; for `CC1(CC(=O)N2CCc3nc(N4C5CCC4CNC5)ccc3C2)CCCC1` [Example 119, 1-(2-(3,8-diazabicyclo[3.2.1]octan-8-yl)-7,8-dihydro-1,6-naphthyridin-6(5H)-yl)-2-(1-methylcyclopentyl)ethan-1-one] it is -4%.
For the compound `O=C(N1Cc2ccc(N3C4CCC3CNC4)nc2C1)C(F)(F)c1ccccc1` [Example 130, 1-(2-(3,8-diazabicyclo[3.2.1]octan-8-yl)-5,7-dihydro-6H-pyrrolo[3,4-b]pyridin-6-yl)-2,2-difluoro-2-phenylethan-1-one], the activity at 10 µM is -10%.
